Source: the supplement of paper PMC12317010
Counter-ions that a name gives are not always drawn.

Test: collision cross section in nitrogen (drift tube, single-field); higher = larger gas-phase ion size
[1] = ion type: [M+H], ion source: APCI, ion mode: Positive
[2] = ion type: [M+Na], ion source: ESI, ion mode: Positive
[3] = ion type: [M+], ion source: APCI, ion mode: Positive
[4] = ion type: [M-H], ion source: ESI, ion mode: Negative
[5] = ion type: [M+H], ion source: ESI, ion mode: Positive
[6] = ion source: APCI, ion mode: Positive, ion type: [M]+ (permanent cation)
[7] = ion source: ESI, ion mode: Positive, ion type: [M]+ (permanent cation)
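Further: chemical standards at 10 µM analysed by drift tube IMS-QTOF MS in about 3.95 torr nitrogen, mean of duplicate injections differing ≤1%, mass error below 10 ppm.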

Row | collision cross section in nitrogen [1] [Å²] | collision cross section in nitrogen [2] [Å²] | collision cross section in nitrogen [4] [Å²] | Structure (SMILES) | collision cross section in nitrogen [5] [Å²] | also measured
1 | 268.1 | 261.6 | 268.7 | Cc1cc(CCC(=O)OCC(C)(C)C2OCC3(CO2)COC(C(C)(C)COC(=O)CCc2cc(C)c(O)c(C(C)(C)C)c2)OC3)cc(C(C)(C)C)c1O (stereo unspecified) [Sumilizer GA 80] | – | collision cross section in nitrogen [3]: 269.1 Å²
2 | – | 214.3 | – | CCN(CC)CCNC(=O)c1c(C)[nH]c(/C=C2\C(=O)Nc3ccc(F)cc32)c1C [Sunitinib malate] | 207 | –
3 | 224.8 | 232.1 | 226.6 | CCc1c(C(=O)NN2CCCCC2)nn(-c2ccc(Cl)cc2Cl)c1-c1ccc(Br)cc1 [Surinabant] | 224.1 | –
4 | 201.3 | 204.5 | – | CCCCC1(COC(=O)CCC(=O)O)C(=O)N(c2ccccc2)N(c2ccccc2)C1=O [Suxibuzone] | 200.8 | –
5 | – | – | 140.9 | COC(=O)Nc1ccc(Cl)c(Cl)c1 [Swep] | – | –
6 | – | – | 145.4 | Nc1c2c(nc3ccccc13)CCCC2 [Tacrine] | 142.7 | –
7 | – | – | 157.7 | C[C@]1(Cn2ccnn2)[C@H](C(=O)O)N2C(=O)C[C@H]2S1(=O)=O [Tazobactam sodium] | 161.8 | –
8 | – | 211.3 | 209.4 | CC1CN(c2cc3c(cc2F)c(=O)c(C(=O)O)cn3-c2ccc(F)cc2F)CCN1 (stereo unspecified) [Temafloxacin] | 193 | –
9 | 154.8 | 172.2 | – | CCNc1nc(NC(C)(C)C)nc(OC)n1 [Terbumeton] | 154.9 | –
10 | – | – | 134 | O=C(O)c1ccc(C(=O)O)cc1 [Terephthalic acid] | – | –
11 | – | – | 224.4 | CC(c1cc(C(C)(C)C)cc(C(C)(C)C)c1O)c1cc(C(C)(C)C)cc(C(C)(C)C)c1O [Tetrabutyl ethylidenebisphenol] | – | –
12 | – | – | – | CCCC[N+](CCCC)(CCCC)CCCC [Tetrabutylammonium bromide] | – | collision cross section in nitrogen [6]: 167.2 Å²; collision cross section in nitrogen [7]: 168 Å²
13 | – | – | – | CCCC[P+](CCCC)(CCCC)CCCC [Tetrabutylphosphonium chloride] | – | collision cross section in nitrogen [6]: 172.4 Å²
14 | – | – | 203.1 | O=C(O)Cc1cc(I)c(Oc2cc(I)c(O)c(I)c2)c(I)c1 [Tetrac] | – | –
15 | – | – | 161.8 | CCCCCCCCCCCCCC(=O)O [Tetradecanoic acid] | – | –
16 | – | – | – | CCCCCCCCCCCCCC[n+]1ccccc1 [Tetradecylpyridinium bromide] | – | collision cross section in nitrogen [6]: 185.4 Å²; collision cross section in nitrogen [7]: 185.9 Å²
17 | – | – | – | CCCCCCCCCCCCCC[N+](C)(C)C [Tetradonium bromide] | – | collision cross section in nitrogen [6]: 185.1 Å²; collision cross section in nitrogen [7]: 185.7 Å²
18 | – | – | – | CC[N+](CC)(CC)CC [Tetraethylammonium bromide] | – | collision cross section in nitrogen [7]: 125.7 Å²
19 | – | 214.4 | – | CCCCC(CC)C(=O)OCCOCCOCCOCCOC(=O)C(CC)CCCC (stereo unspecified) [Tetraethylene glycol di(2-ethylhexanoate)] | – | –

Row | collision cross section in nitrogen [1] [Å²] | collision cross section in nitrogen [2] [Å²] | collision cross section in nitrogen [4] [Å²] | Structure (SMILES) | collision cross section in nitrogen [5] [Å²] | also measured
20 | 171.2 | 176.9 | – | C=C(C)C(=O)OCCOCCOCCOCCOC(=O)C(=C)C [Tetraethyleneglycol dimethacrylate] | – | –
21 | – | 148.5 | – | NCCNCCNCCNCCN [Tetraethylenepentamine] | – | –
22 | – | 173.2 | – | CCN(CC)C(=S)SSC(=S)N(CC)CC [Tetraethylthiuram disulfide] | – | –
23 | – | 181.2 | 184.8 | COc1cc(CCC(=O)CC(=O)CCc2ccc(O)c(OC)c2)ccc1O [Tetrahydrocurcumin] | – | –
24 | 174.6 | 185 | 177.7 | CC(C)OP(=O)(CP(=O)(OC(C)C)OC(C)C)OC(C)C [Tetraisopropyl methylenediphosphonate] | – | –
25 | – | 161.4 | – | CC(C)C(=O)OCC(C)(C)C(O)C(C)C (stereo unspecified) [Texanol] | – | –
26 | 136.3 | 146.7 | – | Cn1c(=O)c2[nH]cnc2n(C)c1=O [Theophylline] | 137.3 | –
27 | 141.6 | 152.4 | 142 | c1ccc2[nH]c(-c3cscn3)nc2c1 [Thiabendazole] | 139.7 | –
28 | – | – | – | Cc1ncc(C[n+]2csc(CCO)c2C)c(N)n1 [Thiamine nitrate] | – | collision cross section in nitrogen [6]: 161.5 Å²
29 | 126.1 | – | – | Cc1ncsc1CCO [Thiamine thiozole] | 126.5 | –
30 | – | – | – | Cc1ncc(C[n+]2csc(CCO)c2C)c(N)n1 [Thiamine] | – | collision cross section in nitrogen [7]: 162.7 Å²
31 | 132.5 | – | – | S=P(N1CC1)(N1CC1)N1CC1 [Thiotepa] | 132.5 | –
32 | – | – | 116.1 | O=c1cc[nH]c(=S)[nH]1 [Thiouracil] | – | –
33 | – | – | 121 | Cc1c[nH]c(=O)[nH]c1=O [Thymine] | – | –
34 | 156.4 | – | – | Clc1ccccc1CN1CCc2sccc2C1 [Ticlopidine hydrochloride] | 156.8 | –
35 | 176.1 | 172.7 | – | CC(C)(C)NC[C@H](O)COc1nsnc1N1CCOCC1 [Timolol maleate salt] | 176.5 | –
36 | – | – | 145.8 | O=S(=O)(O)c1cc(O)c(O)c(S(=O)(=O)O)c1 [Tiron] | – | –
37 | 152 | 158.8 | – | CCOC(=O)NNc1nncc2ccccc12 [Todralazine hydrochloride] | 151.8 | –

Row | Structure (SMILES) | collision cross section in nitrogen [1] [Å²] | collision cross section in nitrogen [2] [Å²] | collision cross section in nitrogen [4] [Å²] | collision cross section in nitrogen [5] [Å²] | also measured
38 | CC(C)(C)C(O)(CCc1ccc(Cl)cc1)Cn1cncn1 (stereo unspecified) [Tebuconazole] | 167.5 | 172.5 | – | 166.8 | –
39 | CCc1ccc(C(=O)NN(C(=O)c2cc(C)cc(C)c2)C(C)(C)C)cc1 [Tebufenozide] | – | 201.3 | 193.6 | – | –
40 | CCc1nn(C)c(C(=O)NCc2ccc(C(C)(C)C)cc2)c1Cl [Tebufenpyrad] | 193.9 | 193.2 | 194 | 193 | –
41 | CCOP(=S)(Oc1cnc(C(C)(C)C)nc1)OC(C)C (stereo unspecified) [Tebupirimfos] | 177.4 | – | – | 177.4 | –
42 | CNC(=O)N(C)c1nnc(C(C)(C)C)s1 [Tebuthiuron] | 150.4 | 162.9 | – | 150.5 | –
43 | O=C(NC(=O)c1c(F)cccc1F)Nc1cc(Cl)c(F)c(Cl)c1F [Teflubenzuron] | – | – | 178.7 | – | –
44 | CS(=O)(=O)c1ccc(C(=O)C2C(=O)CCCC2=O)c(Cl)c1COCC(F)(F)F [Tembotrione] | – | 185.1 | 188.5 | 189.3 | –
45 | COP(=S)(OC)Oc1ccc(Sc2ccc(OP(=S)(OC)OC)cc2)cc1 [Temephos] | 189.4 | 196.3 | – | 189.5 | –
46 | CCC(=NOC/C=C/Cl)C1=C(O)CC(C2CCOCC2)CC1=O (stereo unspecified) [Tepraloxydim] | – | 191.1 | 181.1 | 185.8 | –
47 | Cc1[nH]c(=O)n(C(C)(C)C)c(=O)c1Cl [Terbacil] | – | – | 144.9 | – | –
48 | CNC(=O)Oc1c(C(C)(C)C)cc(C)cc1C(C)(C)C [Terbucarb] | – | 176.8 | – | – | –
49 | CCOP(=S)(OCC)SCS(=O)(=O)C(C)(C)C [Terbufos sulfone] | – | 171.3 | – | – | –
50 | CCNc1nc(NC(C)(C)C)nc(SC)n1 [Terbutryn] | 159.9 | – | – | 159.4 | –
51 | CCNc1nc(Cl)nc(NC(C)(C)C)n1 [Terbutylazine] | 153.8 | – | – | 153.8 | –
52 | Oc1c(O)c(Cl)c(Cl)c(Cl)c1Cl [Tetrachlorocatechol] | – | – | 135.1 | – | –
53 | O=C1OC(=O)c2c(Cl)c(Cl)c(Cl)c(Cl)c21 [Tetrachlorophthalic anhydride] | – | – | 158.1 | – | –
54 | FC(F)C(F)(F)OCC(Cn1cncn1)c1ccc(Cl)cc1Cl (stereo unspecified) [Tetraconazole] | 177.6 | – | – | 176.6 | –
55 | CCOP(=O)(CCP(=O)(OCC)OCC)OCC [Tetraethyl ethylenebisphosphonate] | – | 172.3 | – | 161.1 | –
56 | N#C/N=C1\SCCN1Cc1ccc(Cl)nc1 [Thiacloprid] | – | 174.2 | 154.5 | 159.6 | –
57 | CN1COCN(Cc2cnc(Cl)s2)C1=N[N+](=O)[O-] [Thiamethoxam] | 159.9 | 162.1 | 158.3 | – | –
58 | COC(=O)c1c(C(F)F)nc(C(F)(F)F)c(C2=NCCS2)c1CC(C)C [Thiazopyr] | 183.2 | 192.1 | 182.6 | 182.1 | –
59 | O=C(Nc1ccccc1)Nc1cnns1 [Thidiazuron] | 148.4 | – | – | 147.9 | –
60 | C[CH2][Hg][S]c1ccccc1C(=O)O [Thimerosal] | – | – | 146.9 | – | –
61 | CSC(C)=NOC(=O)N(C)SN(C)C(=O)ON=C(C)SC [Thiodicarb] | – | 190.7 | – | – | –
62 | CCOC(=O)NC(=S)Nc1ccccc1NC(=S)NC(=O)OCC [Thiophanate] | 187 | 189.6 | – | 186.6 | collision cross section in nitrogen [3]: 187.5 Å²
